Where “and” joins values, the source holds several entries; their conditions need not be identical. Identical values can stand only once. Toxic doses and inconclusive results are not listed. No stated cut-off is given here; in the data, active means T/C of 150% or more; inactive means T/C below 125%.
Test system: L1210 leukemia ip in BDF1 mice, survival T/C
Test: NCI In Vivo Anticancer Drug Screen. Data for tumor model L1210 Leukemia (intraperitoneal) in B6D2F1 (BDF1) mice
Details: endpoint: mean survival time, higher = longer survival
Outline: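 Antitumor effect is assessed in tumor-bearing animals. Survival in the compound arm is compared with a vehicle-dosed control arm and expressed as their quotient.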

[1] = dose: 50.0 mg/kg/injection, schedule: Q04DX002 (ip), vehicle: Klucel (hydroxypropylcellulose) (HPC)
[2] = dose: 100.0 mg/kg/injection, schedule: Q04DX002 (ip), vehicle: Klucel (hydroxypropylcellulose) (HPC)
[3] = dose: 200.0 mg/kg/injection, schedule: Q04DX002 (ip), vehicle: Klucel (hydroxypropylcellulose) (HPC)

Measured: T/C

O=S(=O)(Sc1ccc(Cl)cc1)c1ccc(Cl)cc1
inactive: dose: 100.0 mg/kg/injection, schedule: Q04DX002 (ip), vehicle: gum acacia 101 % of control | dose: 200.0 mg/kg/injection, schedule: Q04DX002 (ip), vehicle: gum acacia 107 % of control and 91 % of control | dose: 400.0 mg/kg/injection, schedule: Q04DX002 (ip), vehicle: gum acacia 104 % of control

O=[N+]([O-])c1ccc(N/N=C(\Cc2ccccc2)c2ccccc2)c([N+](=O)[O-])c1
inactive: dose: 100.0 mg/kg/injection, schedule: Q04DX003 (ip), vehicle: saline with Tween-80 91 % of control | dose: 200.0 mg/kg/injection, schedule: Q04DX003 (ip), vehicle: saline with Tween-80 91 % of control | dose: 400.0 mg/kg/injection, schedule: Q04DX003 (ip), vehicle: saline with Tween-80 87 % of control

C=C1c2[nH]c3ccccc3c2C2C(CC)C1CCN2C (stereo unspecified)
inactive: dose: 30.0 mg/kg/injection, schedule: Q01DX Z (ip), vehicle: olive oil, sesame oil, peanut oil 102 % of control | dose: 50.0 mg/kg/injection, schedule: Q01DX Z (ip), vehicle: olive oil, sesame oil, peanut oil 98 % of control

Cc1ccc(-c2ccns2)cc1
inactive: dose: 50.0 mg/kg/injection, schedule: Q04DX003 (ip), vehicle: saline 105 % of control | dose: 100.0 mg/kg/injection, schedule: Q01DX001 (ip), vehicle: saline 100 % of control | dose: 100.0 mg/kg/injection, schedule: Q04DX003 (ip), vehicle: saline 108 % of control | dose: 200.0 mg/kg/injection, schedule: Q01DX001 (ip), vehicle: saline 104 % of control | dose: 200.0 mg/kg/injection, schedule: Q04DX003 (ip), vehicle: saline 103 % of control | dose: 400.0 mg/kg/injection, schedule: Q01DX001 (ip), vehicle: saline 104 % of control

OCc1ccccc1NCc1ccccc1
inactive: dose: 100.0 mg/kg/injection, schedule: Q01DX009 (ip), vehicle: Klucel (hydroxypropylcellulose) (HPC) 103 % of control | dose: 100.0 mg/kg/injection, schedule: Q04DX003 (ip), vehicle: other 105 % of control | dose: 200.0 mg/kg/injection, schedule: Q01DX009 (ip), vehicle: Klucel (hydroxypropylcellulose) (HPC) 91 % of control | dose: 200.0 mg/kg/injection, schedule: Q04DX003 (ip), vehicle: other 100 % of control | dose: 400.0 mg/kg/injection, schedule: Q01DX009 (ip), vehicle: Klucel (hydroxypropylcellulose) (HPC) 99 % of control | dose: 400.0 mg/kg/injection, schedule: Q04DX003 (ip), vehicle: other 97 % of control

OCCSc1ncc2cnccn12
inactive: dose: 100.0 mg/kg/injection, schedule: Q01DX009 (ip), vehicle: water 98 % of control | dose: 100.0 mg/kg/injection, schedule: Q04DX003 (ip), vehicle: water 101 % of control | dose: 200.0 mg/kg/injection, schedule: Q01DX009 (ip), vehicle: water 96 % of control | dose: 200.0 mg/kg/injection, schedule: Q04DX003 (ip), vehicle: water 93 % of control | dose: 400.0 mg/kg/injection, schedule: Q01DX009 (ip), vehicle: water 102 % of control | dose: 400.0 mg/kg/injection, schedule: Q04DX003 (ip), vehicle: water 95 % of control

CN1C(c2ccccc2)=CN(Cc2ccccc2)C=C1c1ccccc1
inactive: [1] 103 % of control | [2] 100 % of control | [3] 97 % of control

C1CC2CC1C1CNCC21 (stereo unspecified)
inactive: dose: 5.0 mg/kg/injection, schedule: Q01DX001 (ip), vehicle: saline 105 % of control | dose: 10.0 mg/kg/injection, schedule: Q01DX001 (ip), vehicle: saline 97 % of control | dose: 20.0 mg/kg/injection, schedule: Q01DX001 (ip), vehicle: saline 105 % of control | dose: 40.0 mg/kg/injection, schedule: Q01DX001 (ip), vehicle: saline 100 % of control | [1] 97 % of control | dose: 80.0 mg/kg/injection, schedule: Q01DX001 (ip), vehicle: saline 91 % of control | [2] 97 % of control

Cc1ccc2c(C)nc(N=C(N)N)nc2c1
inactive: dose: 18.8 mg/kg/injection, schedule: Q04DX003 (ip), vehicle: saline 96 % of control | dose: 37.5 mg/kg/injection, schedule: Q04DX003 (ip), vehicle: saline 100 % of control | dose: 75.0 mg/kg/injection, schedule: Q01DX001 (ip), vehicle: saline 103 % of control | dose: 75.0 mg/kg/injection, schedule: Q04DX003 (ip), vehicle: saline 97 % of control

O=C(COc1ccc(Cl)cc1)Nc1cccc2ccccc12
inactive: [2] 87 % of control | [3] 93 % of control | dose: 400.0 mg/kg/injection, schedule: Q04DX002 (ip), vehicle: Klucel (hydroxypropylcellulose) (HPC) 101 % of control

CC(C)Oc1ccc2c(c1)Sc1ccc(Cl)cc1N2
inactive: dose: 100.0 mg/kg/injection, schedule: Q01DX009 (ip), vehicle: saline with Tween-80 102 % of control | dose: 200.0 mg/kg/injection, schedule: Q01DX009 (ip), vehicle: saline with Tween-80 94 % of control | dose: 400.0 mg/kg/injection, schedule: Q01DX009 (ip), vehicle: saline with Tween-80 92 % of control

Source: PubChem BioAssay AID248 (DTP/NCI, 2004)
